Assay results: patent publication US9232796B2, “Herbicidal compositions comprising 4-amino-3-chloro-5-fluoro-6-(4-chloro-2-fluoro-3-methoxyphenyl) pyridine-2-carboxylic acid or a derivative thereof and acetyl-CoA carboxylase (ACCase) inhibitors” (DOW AGROSCIENCES LLC, priority 2012, dated 2016)

Legend:
[1] = test system: ECHCG; assay: Example VI in-water applied ternary mixtures, greenhouse, transplanted paddy rice weeds; type: in vivo, Echinochloa crus-galli (L.) Beauv.; settings: Table 67, 100 gai/ha, 21 DAA
Protocol: (§1) Weed seeds or nutlets of the desired test plant species were planted in puddled soil (mud) prepared by mixing a shredded, non-sterilized mineral soil (50.5 percent silt, 25.5 percent clay, and 24 percent sand, with a pH of about 7.6 and an organic matter content of about 2.9 percent) and water at a 1:1 volumetric ratio. The prepared mud was dispensed in 365 mL aliquots into 16-ounce (oz.) non-perforated plastic pots with a surface area of 86.59 square centimeters (cm^2) leaving a headspace of 3 centimeters (cm) in each pot. Mud was allowed to dry overnight prior to planting or transplanting. Rice seeds were planted in Sun Gro MetroMix® 306 planting mixture, which typically has a pH of 6.0 to 6.8 and an organic matter content of about 30 percent, in plastic plug trays. Seedlings at the second or third leaf stage of growth were transplanted into 860 mL of mud contained in 32-oz. non-perforated plastic pots with a surface area of 86.59 cm^2 4 days prior to herbicide application. The paddy was created by filling the headspace of the pots with 2.5 to 3 cm of water. When required to ensure good germination and healthy plants, a fungicide treatment and/or other chemical or physical treatment was applied. The plants were grown for 4-22 days in a greenhouse with an approximate 14 hr. photoperiod which was maintained at about 29° C. during the day and 26° C. during the night. Nutrients were added as Osmocote® (19:6:12, N:P:K+minor nutrients) at 2 g per 16-oz. pot and 4 g per 32-oz. pot. Water was added on a regular basis to maintain the paddy flood, and supplemental lighting was provided with overhead metal halide 1000-Watt lamps as necessary. The plants were employed for testing when they reached the first through fourth true leaf stage.
(§2) Treatments consisted of the benzyl ester of 4-amino-3-chloro-5-fluoro-6-(4-chloro-2-fluoro-3-methoxy-phenyl)pyridine-2-carboxylic acid (Compound A), formulated as an SC (suspension concentrate), an ACCase inhibitor herbicide, and a third herbicidal component, each applied alone and in ternary combination. Forms of compound A were applied on an acid equivalent basis.
(§3) The ACCase inhibitor component was applied on an active ingredient basis and included cyhalofop-R-butyl formulated as Clincher® G and metamifop formulated as Metamifop EC. Other herbicidal components were applied on an active ingredient or acid equivalent basis depending on the compound and included penoxsulam formulated as Grasp® SC, bentazon sodium formulated as Basagran®, triclopyr […] (TEA) salt formulated as Grandstand® R, benzobicyclon formulated as Benzobicyclon, benfuresate formulated as Full Slot® WG, pyraclonil formulated as Pyraclon® Flowable, mefenacet (technical grade material), and pretilachlor (technical grade material).
(§4) Treatment requirements for each compound or herbicidal component were calculated based upon the rates being tested, the concentration of active ingredient or acid equivalent in the formulation, an application volume of 1 mL per component per pot, and an application area of 86.59 cm^2 per pot.
(§5) For formulated compounds, a measured amount was placed in an individual 100 or 200 mL glass vial and was dissolved in a volume of 1.25% (v/v) Agri-Dex® crop oil concentrate to obtain application solutions.
(§6) For technical grade compounds, a weighed amount was placed in an individual 100 to 200 mL glass vial and was dissolved in a volume of acetone to obtain concentrated stock solutions.
(§7) Applications were made by injecting with a pipetter appropriate amounts of the application solutions, into the aqueous layer of the paddy. Control plants were treated in the same manner with the solvent blank. Applications were made so that all treated plant material received the same concentrations of acetone and crop oil concentrate.
(§8) The treated plants and control plants were placed in a greenhouse as described above and water was added as needed to maintain a paddy flood. […]

[2] = test system: FIMMI; assay: as above; type: in vivo, Fimbristylis miliacea (L.) Vahl; settings: Table 67, 50 gai/ha, 24 DAA
Protocol: as §1, §2, §3, §4, §5, §6, §7, §8

[3] = test system: ECHOR; assay: as above; type: in vivo, Echinochloa oryzoides (Ard.) Fritsch
Protocol: as §1, §2, §3, §4, §5, §6, §7, §8

[4] = test system: SCPJU; assay: Example I postemergence foliar-applied, greenhouse, direct seeded rice weeds; type: in vivo, Schoenoplectus juncoides (Roxb.) Palla
Source text: (§9) Seeds or nutlets of the desired test plant species were planted in a soil matrix prepared by mixing a loam or sandy loam soil (e.g., 28.6 percent silt, 18.8 percent clay, and 52.6 percent sand, with a pH of about 5.8 and an organic matter content of about 1.8 percent) and calcareous grit in an 80 to 20 ratio. The soil matrix was contained in plastic pots with a volume of 1 quart and a surface area of 83.6 square centimeters (cm^2). When required to ensure good germination and healthy plants, a fungicide treatment and/or other chemical or physical treatment was applied. The plants were grown for 8-22 days in a greenhouse with an approximate 14 hr. photoperiod which was maintained at about 29° C. during the day and 26° C. during the night. Nutrients (Peters Excel® 15-5-15 5-Ca 2-Mg and iron chelate) were applied in the irrigation solution as needed and water was added on a regular basis. Supplemental lighting was provided with overhead metal halide 1000-Watt lamps as necessary. The plants were employed for testing when they reached the first through fourth true leaf stage.
(§10) Treatments consisted of the acid or esters of 4-amino-3-chloro-5-fluoro-6-(4-chloro-2-fluoro-3-methoxy-phenyl)pyridine-2-carboxylic acid (Compound A), each formulated as an SC (suspension concentrate), and various herbicidal components alone and in combination.
(§11) Other herbicidal components were applied on an acid equivalent (ae) or active ingredient (ai) basis and included acetyl coA carboxylase (ACCase)-inhibiting herbicides (cyclohexanedione and aryloxyphenoxypropionate chemical classes) cyhalofop-butyl formulated as Clincher® SF (285 gr ai/L EC), diclofop-methyl formulated as Hoelon® 3EC, fenoxaprop-p-ethyl+isoxadifen-ethyl formulated as RiceStar® HT (0.58 lb./gal EC), fenoxaprop-p-ethyl+mefenpyr diethyl formulated as Puma® IEC, metamifop formulated as Metamifop EC, haloxyfop-methyl formulated as Gallant Super®, fluazifop-p-butyl formulated as Fusilade® DX, quizalofop-p-ethyl formulated as Assure® II, profoxydim formulated as Aura® 20EC, clethodim applied as Intensity®, sethoxydim formulated as Poast®, and tralkoxydim formulated as Achieve®.
(§12) Treatment requirements were calculated based upon the rates being tested, the concentration of active ingredient or acid equivalent in the formulation, and a 12 mL application volume at a rate of 187 L/ha.
(§13) For treatments comprised of formulated compounds, measured amounts of compounds were placed individually in 25 mL glass vials and diluted in a volume of 1.25% (v/v) Agri-Dex® crop oil concentrated to obtain 12× stock solutions. […] Application solutions were prepared by adding an appropriate amount of each stock solution (e.g., 1 mL) and diluted to the appropriate final concentrations with the addition of 10 mL of an aqueous mixture of 1.25% (v/v) crop oil concentrate so that the final spray solutions contained 1.25+/−0.05% (v/v) crop oil concentrate.
(§14) All stock solutions and applications solutions were visually inspected for compound compatibility prior to application. Spray solutions were applied to the plant material with an overhead Mandel track sprayer equipped with a 8002E nozzles calibrated to deliver 187 L/ha over an application area of 0.503 m^2 at a spray height of 18 to 20 inches (46 to 50 cm) above average plant canopy height. Control plants were sprayed in the same manner with the solvent blank.
(§15) The treated plants and control plants were placed in a greenhouse as described above and watered by sub-irrigation to prevent wash-off of the test compounds. After approximately 3 weeks, the condition of the test plants as compared with that of the untreated plants was determined visually and scored on a scale of 0 to 100 percent where 0 corresponds to no injury or growth inhibition and 100 corresponds to complete kill. […]

[5] = test system: CYPRO; assay: Example II in-water applied, greenhouse, transplanted paddy rice weeds; type: in vivo, Cyperus rotundus L.
Protocol: as §1, with “When required to ensure good germination and healthy plants, a fungicide treatment and/or other chemical or physical treatment was applied.” left out
(§16) Treatments consisted of the acid or esters of 4-amino-3-chloro-5-fluoro-6-(4-chloro-2-fluoro-3-methoxy-phenyl)pyridine-2-carboxylic acid (compound A) each formulated as an SC (suspension concentrate) and various herbicidal components alone and in combination.
as §5
as §7, with “solutions, individually and sequentially,” for “solutions,”
(§17) The treated plants and control plants were placed in a greenhouse as described above and water was added as needed to maintain a paddy flood. After approximately 3 weeks the condition of the test plants as compared with that of the untreated plants was determined visually and scored on a scale of 0 to 100 percent where 0 corresponds to no injury or growth inhibition and 100 corresponds to complete kill.
(§18) Colby's equation was used to determine the herbicidal effects expected from the mixtures (Colby, S. R. 1967. Calculation of the synergistic and antagonistic response of herbicide combinations. Weeds 15:20-22.).
(§19) The following equation was used to calculate the expected activity of mixtures containing two active ingredients, A and B: Expected=A+B−(A×B/100)

[6] = test system: ECHCO; assay: Example I postemergence foliar-applied, greenhouse, direct seeded rice weeds; type: in vivo, Echinochloa colona (L.) Link
Source text: as §9, §10, §11, §12, §13, §14, §15

[7] = test system: SCPJU; assay: Example II in-water applied, greenhouse, transplanted paddy rice weeds; type: in vivo, Schoenoplectus juncoides (Roxb.) Palla; settings: in-water
Protocol: as §1, with “When required to ensure good germination and healthy plants, a fungicide treatment and/or other chemical or physical treatment was applied.” left out
as §16, §5
as §7, with “solutions, individually and sequentially,” for “solutions,”
as §17, §18, §19

[8] = test system: BRAPP; assay: Example I postemergence foliar-applied, greenhouse, direct seeded rice weeds; type: in vivo, Brachiaria platyphylla (Griseb.) Nash
Source text: as §9, §10, §11, §12, §13, §14, §15

[9] = test system: IPOHE; assay: as above; type: in vivo, Ipomoea hederacea Jacq.
Source text: as §9, §10, §11, §12, §13, §14, §15

CS(=O)(=O)c1ccc(C(=O)C2=C(Sc3ccccc3)C3CCC(C3)C2=O)c(Cl)c1 (stereo not shown) [Benzobicylon]
Visual Weed Control (%) - 21 DAA ECHCG Obs [1]: 20%
Visual Weed Control (%) - 24 DAA FIMMI Obs [2]: 68%
Visual Weed Control (%) - 24 DAA ECHOR Obs ([3]; Table 67, 25 gai/ha): 10%
Visual Weed Control (%) - 24 DAA ECHOR Obs ([3]; Table 67, 50 gai/ha): 10%

COC(=O)[C@@H](C)Oc1ccc(Oc2ncc(C(F)(F)F)cc2Cl)cc1 [Haloxyfop-methyl, methyl(2R)-2-[4-[[3-chloro-5-(trifluoromethyl)-2-pyridinyl]oxy]phenoxy]propanoate]
Visual Weed Control (%) - 20 DAA SCPJU Obs ([4]; 6.75 gai/ha): 0%
Visual Weed Control (%) - 20 DAA SCPJU Obs ([4]; 13.5 gai/ha): 0%
Visual Weed Control (%) - 20 DAA SCPJU Obs ([4]; 27 gai/ha): 0%
Visual Weed Control (%) - 20 DAA CYPRO Obs ([5]; 13.5 gai/ha): 0%
Visual Weed Control (%) - 20 DAA CYPRO Obs ([5]; 27 gai/ha): 0%
Visual Weed Control (%) - 20 DAA ECHCO Obs ([6]; 6.75 gai/ha): 0%
Visual Weed Control (%) - 20 DAA ECHCO Obs ([6]; 13.5 gai/ha): 0%
Visual Weed Control (%) - 20 DAA ECHCO Obs ([6]; 27 gai/ha): 0%
Visual Weed Control (%) - 20 DAA SCPJU Obs ([7]; 13.5 gai/ha): 0%
Visual Weed Control (%) - 20 DAA SCPJU Obs ([7]; 27 gai/ha): 0%
Visual Weed Control (%) - 20 DAA BRAPP Obs ([8]; 6.75 gai/ha): 0%
Visual Weed Control (%) - 20 DAA BRAPP Obs ([8]; 13.5 gai/ha): 0%
Visual Weed Control (%) - 20 DAA IPOHE Obs ([9]; 6.75 gai/ha): 0%
Visual Weed Control (%) - 20 DAA IPOHE Obs ([9]; 13.5 gai/ha): 0%
Visual Weed Control (%) - 20 DAA IPOHE Obs ([9]; 27 gai/ha): 0%
